Patent publication US20100160454A1, “ANTIMICROBIAL AGENTS, COMPOSITIONS AND PRODUCTS CONTAINING THE SAME, AND METHODS OF USING THE COMPOSITIONS AND PRODUCTS” (Eastman Chemical Company, priority 2008, published 2010)

Experiments:
Experiment in all cases: Microbiological challenge testing in BPW broth, graded subculture counts
Assay type in all cases: cell-based
[1] = system: Escherichia coli ATCC 25922; settings: E. Coli
In short: (§1)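 Challenge substrates of BPW plus 1% dextrose containing the test material (w/v) or broth alone were inoculated to 10^5–10^6 CFU/mL. Bacteria had been precultured in dextrose TSB at 35 °C for at least 96 h. CFU/mL came from plate count × dilution factor on PCA after ≥48 h at 35 °C.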

[2] = system: Pseudomonas aeruginosa Wild type; settings: P. aeruginosa
In short: as §1

[3] = system: Staphylococcus epidermidis ATCC 12228
In short: as §1

[4] = system: Streptococcus mutans ATCC 35668
In short: as §1

[5] = system: Aeromonas sp. Wild type
In short: as §1

[6] = system: Bacillus subtilis Wild type
In short: as §1

## CC1(C)C(O)C(C)(C)C1O (stereo not drawn) [TMCBD, 2,2,4,4-tetramethyl-1,3-cyclobutanediol]
[1]; 0.5% (wt/vol), 3 day
  Grade: 5 (More than 10,000 colonies estimated (thus more than 100,000 CFU/mL))
[1]; 0.5% (wt/vol), 14 day
  Grade: 5 (More than 10,000 colonies estimated (thus more than 100,000 CFU/mL))
[1]; 0.5% (wt/vol), 30 day
  Grade: 5 (More than 10,000 colonies estimated (thus more than 100,000 CFU/mL))
[1]; 1.25% (wt/vol), 3 day
  Grade: 4 (1000 to 10,000 colonies countable (thus 10,000 CFU/mL to 100,000 CFU/mL))
[1]; 1.25% (wt/vol), 14 day
  Grade: 4 (1000 to 10,000 colonies countable (thus 10,000 CFU/mL to 100,000 CFU/mL))
[1]; 1.25% (wt/vol), 30 day
  Grade: 4 (1000 to 10,000 colonies countable (thus 10,000 CFU/mL to 100,000 CFU/mL))
[1]; 2.5% (wt/vol), 3 day
  Grade: 4 (1000 to 10,000 colonies countable (thus 10,000 CFU/mL to 100,000 CFU/mL))
[1]; 2.5% (wt/vol), 14 day
  Grade: 4 (1000 to 10,000 colonies countable (thus 10,000 CFU/mL to 100,000 CFU/mL))
[1]; 2.5% (wt/vol), 30 day
  Grade: 4 (1000 to 10,000 colonies countable (thus 10,000 CFU/mL to 100,000 CFU/mL))
[1]; 5.0% (wt/vol), 3 day
  Grade: 0
[1]; 5.0% (wt/vol), 14 day
  Grade: 0
[1]; 5.0% (wt/vol), 30 day
  Grade: 0
[2]; 0.5% (wt/vol), 3 day
  Grade: 5 (More than 10,000 colonies estimated (thus more than 100,000 CFU/mL))
[2]; 0.5% (wt/vol), 13 day
  Grade: 5 (More than 10,000 colonies estimated (thus more than 100,000 CFU/mL))
[2]; 0.5% (wt/vol), 30 day
  Grade: 5 (More than 10,000 colonies estimated (thus more than 100,000 CFU/mL))
[2]; 1.25% (wt/vol), 3 day
  Grade: 4 (1000 to 10,000 colonies countable (thus 10,000 CFU/mL to 100,000 CFU/mL))
[2]; 1.25% (wt/vol), 13 day
  Grade: 4 (1000 to 10,000 colonies countable (thus 10,000 CFU/mL to 100,000 CFU/mL))
[2]; 1.25% (wt/vol), 30 day
  Grade: 4 (1000 to 10,000 colonies countable (thus 10,000 CFU/mL to 100,000 CFU/mL))
[2]; 2.5% (wt/vol), 3 day
  Grade: 4 (1000 to 10,000 colonies countable (thus 10,000 CFU/mL to 100,000 CFU/mL))
[2]; 2.5% (wt/vol), 13 day
  Grade: 3 (100 to 1000 colonies (thus 1000 to 10,000 CFU/mL))
[2]; 2.5% (wt/vol), 30 day
  Grade: 4 (1000 to 10,000 colonies countable (thus 10,000 CFU/mL to 100,000 CFU/mL))
[2]; 5.0% (wt/vol), 3 day
  Grade: 3 (100 to 1000 colonies (thus 1000 to 10,000 CFU/mL))
[2]; 5.0% (wt/vol), 13 day
  Grade: 1 (0 to 51 colonies counted (thus 10 to 510 CFU/mL based on 0.1-mL sample))
[2]; 5.0% (wt/vol), 30 day
  Grade: 0
[3]; 0.5% weight/volume
  S. epidermidis growth grade, 3 day: 4 (1000 to 10,000 colonies countable (thus 10,000 CFU/mL to 100,000 CFU/mL))
  S. epidermidis growth grade, 13 day: 4 (1000 to 10,000 colonies countable (thus 10,000 CFU/mL to 100,000 CFU/mL))
  S. epidermidis growth grade, 30 day: 4 (1000 to 10,000 colonies countable (thus 10,000 CFU/mL to 100,000 CFU/mL))
[3]; 1.25% weight/volume
  S. epidermidis growth grade, 3 day: 2 (52 to 100 colonies counted (thus 520 to 1000 CFU/mL))
  S. epidermidis growth grade, 13 day: 3 (100 to 1000 colonies (thus 1000 to 10,000 CFU/mL))
  S. epidermidis growth grade, 30 day: 4 (1000 to 10,000 colonies countable (thus 10,000 CFU/mL to 100,000 CFU/mL))
[3]; 2.5% weight/volume
  S. epidermidis growth grade, 3 day: 2 (52 to 100 colonies counted (thus 520 to 1000 CFU/mL))
  S. epidermidis growth grade, 13 day: 2 (52 to 100 colonies counted (thus 520 to 1000 CFU/mL))
  S. epidermidis growth grade, 30 day: 2 (52 to 100 colonies counted (thus 520 to 1000 CFU/mL))
[3]; 5.0% weight/volume
  S. epidermidis growth grade, 3 day: 1 (0 to 51 colonies counted (thus 10 to 510 CFU/mL based on 0.1-mL sample))
  S. epidermidis growth grade, 13 day: 0
  S. epidermidis growth grade, 30 day: 0
[4]; 0.5% weight/volume
  S. mutans growth grade, 3 day: 4 (1000 to 10,000 colonies countable (thus 10,000 CFU/mL to 100,000 CFU/mL))
  S. mutans growth grade, 13 day: 4 (1000 to 10,000 colonies countable (thus 10,000 CFU/mL to 100,000 CFU/mL))
  S. mutans growth grade, 30 day: 4 (1000 to 10,000 colonies countable (thus 10,000 CFU/mL to 100,000 CFU/mL))
[4]; 1.25% weight/volume
  S. mutans growth grade, 3 day: 4 (1000 to 10,000 colonies countable (thus 10,000 CFU/mL to 100,000 CFU/mL))
  S. mutans growth grade, 13 day: 4 (1000 to 10,000 colonies countable (thus 10,000 CFU/mL to 100,000 CFU/mL))
  S. mutans growth grade, 30 day: 4 (1000 to 10,000 colonies countable (thus 10,000 CFU/mL to 100,000 CFU/mL))
[4]; 2.5% weight/volume
  S. mutans growth grade, 3 day: 3 (100 to 1000 colonies (thus 1000 to 10,000 CFU/mL))
  S. mutans growth grade, 13 day: 1 (0 to 51 colonies counted (thus 10 to 510 CFU/mL based on 0.1-mL sample))
  S. mutans growth grade, 30 day: 0
[4]; 5.0% weight/volume
  S. mutans growth grade, 3 day: 0
  S. mutans growth grade, 13 day: 0
  S. mutans growth grade, 30 day: 0
[5]; 0.5% weight/volume
  Aeromonas sp growth grade, 3 day: 5 (More than 10,000 colonies estimated (thus more than 100,000 CFU/mL))
  Aeromonas sp growth grade, 14 day: 4 (1000 to 10,000 colonies countable (thus 10,000 CFU/mL to 100,000 CFU/mL))
  Aeromonas sp growth grade, 30 day: 4 (1000 to 10,000 colonies countable (thus 10,000 CFU/mL to 100,000 CFU/mL))
[5]; 1.25% weight/volume
  Aeromonas sp growth grade, 3 day: 4 (1000 to 10,000 colonies countable (thus 10,000 CFU/mL to 100,000 CFU/mL))
  Aeromonas sp growth grade, 14 day: 4 (1000 to 10,000 colonies countable (thus 10,000 CFU/mL to 100,000 CFU/mL))
  Aeromonas sp growth grade, 30 day: 4 (1000 to 10,000 colonies countable (thus 10,000 CFU/mL to 100,000 CFU/mL))
[5]; 2.5% weight/volume
  Aeromonas sp growth grade, 3 day: 4 (1000 to 10,000 colonies countable (thus 10,000 CFU/mL to 100,000 CFU/mL))
  Aeromonas sp growth grade, 14 day: 2 (52 to 100 colonies counted (thus 520 to 1000 CFU/mL))
  Aeromonas sp growth grade, 30 day: 3 (100 to 1000 colonies (thus 1000 to 10,000 CFU/mL))
[5]; 5.0% weight/volume
  Aeromonas sp growth grade, 3 day: 2 (52 to 100 colonies counted (thus 520 to 1000 CFU/mL))
  Aeromonas sp growth grade, 14 day: 0
  Aeromonas sp growth grade, 30 day: 0
[6]; 0.5% weight/volume
  B. subtillis growth grade, 3 day: 4 (1000 to 10,000 colonies countable (thus 10,000 CFU/mL to 100,000 CFU/mL))
  B. subtillis growth grade, 14 day: 4 (1000 to 10,000 colonies countable (thus 10,000 CFU/mL to 100,000 CFU/mL))
  B. subtillis growth grade, 30 day: 4 (1000 to 10,000 colonies countable (thus 10,000 CFU/mL to 100,000 CFU/mL))
[6]; 1.25% weight/volume
  B. subtillis growth grade, 3 day: 4 (1000 to 10,000 colonies countable (thus 10,000 CFU/mL to 100,000 CFU/mL))
  B. subtillis growth grade, 14 day: 4 (1000 to 10,000 colonies countable (thus 10,000 CFU/mL to 100,000 CFU/mL))
  B. subtillis growth grade, 30 day: 4 (1000 to 10,000 colonies countable (thus 10,000 CFU/mL to 100,000 CFU/mL))
[6]; 2.5% weight/volume
  B. subtillis growth grade, 3 day: 4 (1000 to 10,000 colonies countable (thus 10,000 CFU/mL to 100,000 CFU/mL))
  B. subtillis growth grade, 14 day: 4 (1000 to 10,000 colonies countable (thus 10,000 CFU/mL to 100,000 CFU/mL))
  B. subtillis growth grade, 30 day: 4 (1000 to 10,000 colonies countable (thus 10,000 CFU/mL to 100,000 CFU/mL))
[6]; 5.0% weight/volume
  B. subtillis growth grade, 3 day: 4 (1000 to 10,000 colonies countable (thus 10,000 CFU/mL to 100,000 CFU/mL))
  B. subtillis growth grade, 14 day: 2 (52 to 100 colonies counted (thus 520 to 1000 CFU/mL))
  B. subtillis growth grade, 30 day: 0
